Type in all cases: in vivo
In series [1] the test system is Cabbage Looper (Trichoplusia ni, TRIPNI). The series can be described thus: Bioassay on Cabbage Looper (CL), 128-well diet tray assay. As to conditions: 168 h, 50 μg/cm^2 on artificial diet, second instar larvae, 25° C., five to seven days, average of eight wells, read-out: CL % Control (or Mortality) rating. The method in brief:
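Second-instar T. ni larvae (one to five per well) were placed on artificial diet treated with 50 μg/cm^2 compound, applied in 90:10 acetone-water and dried. Trays were held five to seven days at 25 °C under 14:10 light-dark. Percent mortality per well was averaged over eight wells.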

Series [2] relates to Yellow Fever Mosquito (Aedes aegypti, AEDSAE). Nature of the series: Bioassay on Yellow Fever Mosquito (YFM) larvae, 96-well plate. The settings on record: about 1 day-old larvae, room temperature, 3 days, scored on mortality. The essentials:
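Compound stocks at 4000 ppm in DMSO were diluted with 90:10 water/acetone, and 15 μL aliquots were dispensed into six replicate plates. About 1-day-old larvae in liver-powder water were added per well. Plates were covered and held at room temperature for 3 days before each well was scored for mortality.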

Series [3] concerns Beet Armyworm (Spodoptera exigua, LAPHEG). Nature of the series: Bioassay on Beet Armyworm (BAW), 128-well diet tray assay. As to conditions: 168 h, 50 μg/cm^2 on artificial diet, second instar larvae, 25° C., five to seven days, average of eight wells, read-out: BAW % Control (or Mortality) rating. The essentials: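 Artificial diet surface-treated with 50 μg/cm^2 test molecule in 90:10 acetone-water, dried, then infested with one to five second instar larvae per well. Held covered and vented at 25° C., 14:10 light-dark for five to seven days; percent mortality recorded per well and averaged over eight wells.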

The record followed here is patent US9795140B2, “Molecules having pesticidal utility, and intermediates, compositions, and processes, related thereto” (priority 2015, dated 2017).

On to `C[C@H](CSCCC(F)(F)F)NC(=O)c1cc(NC(=O)C2C(c3cc(Cl)cc(Cl)c3)C2(Cl)Cl)ccc1Cl` (stereo in doubt) [PF2, trans-2-Chloro-5-(2,2-dichloro-3-(3,5-dichlorophenyl)cyclopropane-1-carboxamido)-N—((R)-1-((3,3,3-trifluoropropyl)thio)propan-2-yl)benzamide], for which the mortality at 50 µg/cm2 in series [1] and in series [3] was 50 to 100% throughout. The “YFM % Control (or Mortality) rating” value in series [2] was “A (80-100)”.
As for `C[C@H](CS(=O)(=O)CCC(F)(F)F)NC(=O)c1cc(NC(=O)C2C(c3cc(Cl)cc(Cl)c3)C2(Cl)Cl)ccc1Cl` (stereo in doubt) [PF4, trans-2-Chloro-5-(2,2-dichloro-3-(3,5-dichlorophenyl)cyclopropane-1-carboxamido)-N—((R)-1-((3,3,3-trifluoropropyl)sulfonyl)propan-2-yl)benzamide], the mortality at 50 µg/cm2 in series [1] and in series [3] was 50 to 100% throughout. The “YFM % Control (or Mortality) rating” value in series [2] is on record as “A (80-100)”.
Regarding `C[C@H](C[S+]([O-])CCC(F)(F)F)NC(=O)c1cc(NC(=O)C2C(c3cc(Cl)cc(Cl)c3)C2(Cl)Cl)ccc1Cl` (stereo in doubt) [PF5, trans-2-Chloro-5-(2,2-dichloro-3-(3,5-dichlorophenyl)cyclopropane-1-carboxamido)-N-((2R)-1-((3,3,3-trifluoropropyl)sulfinyl)propan-2-yl)benzamide], the mortality at 50 µg/cm2 in series [1] and in series [3] was 50 to 100% each time. Further, in series [2], the “YFM % Control (or Mortality) rating” value was “A (80-100)”.
With `C[C@H](C[S+]([O-])CC(F)(F)F)NC(=O)c1cc(NC(=O)C2C(c3cc(Cl)cc(Cl)c3)C2(Cl)Cl)ccc1Cl` (stereo in doubt) [PF7, trans-2-Chloro-5-(2,2-dichloro-3-(3,5-dichlorophenyl)cyclopropane-1-carboxamido)-N-((2R)-1-((2,2,2-trifluoroethyl)sulfinyl)propan-2-yl)benzamide], the mortality at 50 µg/cm2 in series [1] and in series [3] was 50 to 100% each time. Further, the “YFM % Control (or Mortality) rating” value in series [2] is “A (80-100)”.
Turning to `O=C(NCCC1CC1)c1cc(NC(=O)C2C(c3cc(Cl)cc(Cl)c3)C2(Cl)Cl)ccc1Cl` (stereo not drawn) [F24, trans-N-2-Chloro-N-(2-cyclopropylethyl)-5-(2,2-dichloro-3-(3,5-dichlorophenyl)cyclopropane-1-carboxamido)benzamide], the mortality at 50 µg/cm2 in series [1] and in series [3] was 50 to 100% in each case. The “YFM % Control (or Mortality) rating” value in series [2] was “A (80-100)”.
Turning to `O=C(NCCC1CC1)c1cc(NC(=O)C2C(c3ccc(Cl)c(Cl)c3)C2(Cl)Cl)ccc1Cl` (stereo not drawn) [F25, trans-N-2-Chloro-N-(2-cyclopropylethyl)-5-(2,2-dichloro-3-(3,4-dichlorophenyl)cyclopropane-1-carboxamido)benzamide], the mortality at 50 µg/cm2 in series [1] and in series [3] was 50 to 100% throughout. For the same compound, in series [2], the “YFM % Control (or Mortality) rating” value was “A (80-100)”.
Turning to `O=C(NCCC1CC1)c1cc(NC(=O)C2C(c3cc(Cl)c(Cl)c(Cl)c3)C2(Cl)Cl)ccc1Cl` (stereo not drawn) [F26, trans-N-2-Chloro-N-(2-cyclopropylethyl)-5-(2,2-dichloro-3-(3,4,5-trichlorophenyl)cyclopropane-1-carboxamido)benzamide], the mortality at 50 µg/cm2 in series [1] and in series [3] was 50 to 100% throughout. In series [2], the “YFM % Control (or Mortality) rating” value is recorded as “A (80-100)”.
Regarding `COc1c(F)cc(C2C(C(=O)Nc3ccc(Cl)c(C(=O)NCC(F)(F)F)c3)C2(Cl)Cl)cc1F` (stereo not drawn) [F125, 2-Chloro-5-trans-(2,2-dichloro-3-(3,5-difluoro-4-methoxyphenyl)cyclopropane-1-carboxamido)-N-(2,2,2-trifluoroethyl)benzamide], the mortality at 50 µg/cm2 in series [1] and in series [3] was 50 to 100% each time. Moreover, the “YFM % Control (or Mortality) rating” value in series [2] was “A (80-100)”.
